Assay results published in ChEMBL document CHEMBL1201862, “PubChem BioAssay data set” (2004).
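A five-concentration, 48-hour dose response in 96-well plates underlies each endpoint, interpolated linearly between surrounding concentrations. GI50 is the concentration that inhibits growth by half.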 Activity calls are given as the source filed them. Cut-off read from the data, not from the text of the source: active = GI50 up to about 1.1 µM and inactive = higher.

What was measured:
Assay in all cases: NCI-60 cell line screen, 48 h
MCF7 = tested on: MCF7
ACHN = tested on: ACHN
A549 = tested on: A549
DMS-273 = tested on: DMS-273
CCRF-CEM = tested on: CCRF-CEM
OVCAR-8 = tested on: OVCAR-8
TK-10 = tested on: TK-10
UO-31 = tested on: UO-31
NCI/ADR-RES = tested on: NCI/ADR-RES
OVCAR-4 = tested on: OVCAR-4
HOP-92 = tested on: HOP-92
HCC 2998 = tested on: HCC 2998
SNB-75 = tested on: SNB-75
SF-295 = tested on: SF-295
NCI-H522 = tested on: NCI-H522
T47D = tested on: T47D
OVCAR-5 = tested on: OVCAR-5
SR = tested on: SR
HOP-62 = tested on: HOP-62
SK-MEL-5 = tested on: SK-MEL-5

Compound	GI50 (MCF7)	GI50 (ACHN)	GI50 (A549)	GI50 (DMS-273)	GI50 (CCRF-CEM)	GI50 (OVCAR-8)	GI50 (TK-10)	GI50 (UO-31)	GI50 (NCI/ADR-RES)	GI50 (OVCAR-4)	GI50 (HOP-92)	GI50 (HCC 2998)	GI50 (SNB-75)	GI50 (SF-295)	GI50 (NCI-H522)	GI50 (T47D)	GI50 (OVCAR-5)	GI50 (SR)	GI50 (HOP-62)	GI50 (SK-MEL-5)
COc1c(C)c2c(c(O)c1C/C=C(\C)CCC(=O)O)C(=O)OC2 [MYCOPHENOLIC ACID]	0.376 µM (active)	1.75 µM (inactive)	0.659 µM (active)	0.35 µM (active)	0.49 µM (active)	1.08 µM (active)	17.4 µM (inactive)	3.1 µM (inactive)	2.97 µM (inactive)	> 21.8 µM (inactive)	4.68 µM (inactive)	3.94 µM (inactive)	6.81 µM (inactive)	0.632 µM (active)	0.442 µM (active)	7.33 µM (inactive)	7.05 µM (inactive)	0.446 µM (active)	6.44 µM (inactive)	1.02 µM (active)
COC1=CC(=O)C(O)=C(CC2(C)C(C)CCC3(C)C2CCCC3(C)C)C1=O (configuration not stated)		3.89 µM (inactive)	2.99 µM (inactive)	3.47 µM (inactive)	1.91 µM (inactive)	4.57 µM (inactive)	4.97 µM (inactive)	4.49 µM (inactive)		4.18 µM (inactive)	2.38 µM (inactive)	3.6 µM (inactive)	3.89 µM (inactive)	2.89 µM (inactive)	2.7 µM (inactive)		10.3 µM (inactive)	3.11 µM (inactive)	3.64 µM (inactive)	3.76 µM (inactive)
